Legend:
[1] = Phase 1 relative bioavailability (capsule v. tablet) and food effect study; type: in vivo, human
Source text: This example describes a Phase 1 study to compare the single-dose PK of an etrumadenant tablet versus an etrumadenant capsule, in healthy adult participants (19-55 years of age), and to evaluate the effect of food on the single-dose PK of etrumadenant tablet, in healthy adult participants.
The study was an open-label, randomized, 3-treatment, 3 period crossover study to evaluate the relative bioavailability (BA) of etrumadenant tablet and capsule formulations and the effect of food on the tablet formulation. On Day 1 of each period, a single dose of etrumadenant was administered in a 3-period crossover fashion. Participants (n=24) received etrumadenant capsules under fasting (Treatment A) conditions and etrumadenant tablets under fasting (Treatment B) and fed (high-fat meal; Treatment C) conditions. PK samples for etrumadenant and its metabolites were taken predose and up to 120 hours post dose. There was a washout of at least 7 days between the etrumadenant doses. All participants who received at least one dose of etrumadenant (including participants who terminate the study early) were asked to return to the Clinical Research Unit (CRU) 14 (+2) days after the last dose for follow-up procedures, and to determine if any adverse event (AE) has occurred since the last study visit.
Study treatments are described as follows. […]
Additional PK parameters were calculated if deemed appropriate. […]

P-gp = P-gp (Homo sapiens, UniProt P08183); assay: In vitro transporter substrate data (P-gp); type: in vitro ADME
Sequence of P-gp (P08183 whole entry): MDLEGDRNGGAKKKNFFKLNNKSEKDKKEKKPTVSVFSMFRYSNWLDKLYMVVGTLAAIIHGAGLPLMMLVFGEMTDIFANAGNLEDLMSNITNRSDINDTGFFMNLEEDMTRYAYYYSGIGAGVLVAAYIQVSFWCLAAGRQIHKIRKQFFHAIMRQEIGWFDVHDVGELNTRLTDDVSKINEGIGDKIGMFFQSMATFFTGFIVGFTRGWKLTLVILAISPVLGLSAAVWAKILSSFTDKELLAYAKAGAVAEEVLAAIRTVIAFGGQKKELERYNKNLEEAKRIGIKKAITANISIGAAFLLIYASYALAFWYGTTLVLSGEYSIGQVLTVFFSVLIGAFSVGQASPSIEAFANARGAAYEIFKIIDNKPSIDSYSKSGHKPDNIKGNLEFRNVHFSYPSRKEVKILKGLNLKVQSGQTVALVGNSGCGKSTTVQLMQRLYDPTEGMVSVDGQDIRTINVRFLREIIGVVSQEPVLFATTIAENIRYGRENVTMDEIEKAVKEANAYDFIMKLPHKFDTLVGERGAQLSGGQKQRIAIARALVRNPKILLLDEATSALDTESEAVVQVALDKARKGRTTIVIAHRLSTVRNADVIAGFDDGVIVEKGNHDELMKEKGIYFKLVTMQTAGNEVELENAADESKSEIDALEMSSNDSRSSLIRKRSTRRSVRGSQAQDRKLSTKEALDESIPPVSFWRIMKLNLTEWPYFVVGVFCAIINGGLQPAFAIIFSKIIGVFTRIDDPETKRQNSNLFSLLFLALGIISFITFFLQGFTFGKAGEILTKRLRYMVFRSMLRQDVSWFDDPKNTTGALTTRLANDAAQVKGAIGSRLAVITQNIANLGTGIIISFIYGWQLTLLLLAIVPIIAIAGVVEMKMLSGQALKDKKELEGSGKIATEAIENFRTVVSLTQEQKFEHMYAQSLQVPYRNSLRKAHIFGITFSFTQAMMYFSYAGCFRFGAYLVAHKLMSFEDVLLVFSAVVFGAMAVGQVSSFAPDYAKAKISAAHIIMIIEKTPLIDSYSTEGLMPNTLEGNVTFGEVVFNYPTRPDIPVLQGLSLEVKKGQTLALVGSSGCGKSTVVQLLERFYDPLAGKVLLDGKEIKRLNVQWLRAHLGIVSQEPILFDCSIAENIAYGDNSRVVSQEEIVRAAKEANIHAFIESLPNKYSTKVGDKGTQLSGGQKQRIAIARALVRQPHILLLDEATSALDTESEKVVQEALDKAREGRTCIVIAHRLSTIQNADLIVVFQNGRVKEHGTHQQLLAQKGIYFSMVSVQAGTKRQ

[2] = Thermal analysis by MDSC (Tg); type: physicochemical; conditions: amorphous etrumadenant made by melt quenching; one experiment
Description: Thermal Properties. Thermal properties were measured using a TA Instruments Discovery DSC2500 DSC equipped with a TA instruments Refrigerated Cooling System 90 operating in modulated mode. Briefly, bulk drug substance was analyzed by standard DSC with a heating rate of 10° C. per minute ramping up to 220° C. Amorphous etrumadenant was created from the starting drug substance by rapidly melt quenching using liquid N2 and then analyzed by modulated DSC (MDSC). Events monitored include the glass transition temperature (Tg), cold crystallization (Tc), defined as a crystallization event at a temperature lower than the melt temperature, and melting temperature (Tm). In one experiment, the thermal properties were as follows: Tg=69° C.; Tc=no crystallization up to 220° C.; Tm=192° C. Minor lot-to-lot variation may occur.

[3] = biological target: T1, breast cancer resistance protein (BCRP) (Homo sapiens, UniProt Q9UNQ0); assay: In vitro transporter substrate data (BCRP); type: in vitro ADME
T1 sequence (Q9UNQ0 1-655): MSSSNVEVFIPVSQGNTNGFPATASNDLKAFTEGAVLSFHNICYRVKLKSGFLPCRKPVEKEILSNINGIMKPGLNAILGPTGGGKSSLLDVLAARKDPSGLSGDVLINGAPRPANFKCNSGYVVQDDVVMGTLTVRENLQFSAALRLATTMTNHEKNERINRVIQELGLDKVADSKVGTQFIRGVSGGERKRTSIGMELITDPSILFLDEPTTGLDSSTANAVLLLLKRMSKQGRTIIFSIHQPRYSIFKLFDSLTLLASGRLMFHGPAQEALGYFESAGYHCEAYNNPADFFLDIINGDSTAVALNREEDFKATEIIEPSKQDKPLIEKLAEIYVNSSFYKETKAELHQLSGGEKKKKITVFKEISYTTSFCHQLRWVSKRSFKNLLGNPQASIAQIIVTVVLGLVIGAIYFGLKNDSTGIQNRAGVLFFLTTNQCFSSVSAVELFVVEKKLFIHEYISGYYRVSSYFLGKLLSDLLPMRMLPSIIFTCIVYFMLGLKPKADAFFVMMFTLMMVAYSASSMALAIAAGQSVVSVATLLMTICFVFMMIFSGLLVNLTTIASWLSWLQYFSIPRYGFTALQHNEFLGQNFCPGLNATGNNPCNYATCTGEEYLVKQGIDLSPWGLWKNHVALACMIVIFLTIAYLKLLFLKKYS

A2AR = A2AR (Homo sapiens, UniProt P29274); conditions: antagonist; has been reported; cited from earlier work
Sequence of A2AR (P29274 whole entry, canonical isoform): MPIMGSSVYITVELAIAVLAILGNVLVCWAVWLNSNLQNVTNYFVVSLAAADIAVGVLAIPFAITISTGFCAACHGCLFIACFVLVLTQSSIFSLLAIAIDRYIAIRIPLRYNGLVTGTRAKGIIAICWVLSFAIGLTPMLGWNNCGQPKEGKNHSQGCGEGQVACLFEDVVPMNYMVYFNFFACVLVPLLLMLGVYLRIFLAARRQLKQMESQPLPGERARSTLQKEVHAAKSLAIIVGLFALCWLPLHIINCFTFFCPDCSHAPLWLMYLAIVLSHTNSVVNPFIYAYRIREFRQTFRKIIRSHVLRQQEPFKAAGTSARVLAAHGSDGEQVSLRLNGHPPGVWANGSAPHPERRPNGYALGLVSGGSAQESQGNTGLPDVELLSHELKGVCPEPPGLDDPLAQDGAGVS

[4] = system: CYP3A4, CYP2C8, and uridine 5′-diphospho glucuronosyltransferase (UGT) enzyme isoforms; assay: In vitro metabolism of etrumadenant; type: in vitro ADME; conditions: in vitro data

Cc1c(C#N)cccc1-c1cc(-c2cn(Cc3cccc(C(C)(C)O)n3)nn2)nc(N)n1 [Etrumadenant, 3-[2-amino-6-(1-{[6-(2-hydroxypropan-2-yl)pyridine-2-yl]methyl}-1H-1,2,3-triazol-4-yl)pyrimidin-4-yl]-2-methylbenzonitrile]
Cmax, AUC and Tmax in capsules and tablets ([1]; 150 mg, fasting): statistically equivalent
effect of fed conditions on overall exposure (AUClast and AUCINF) compared to fasting condition ([1]; tablet 150 mg): no effect
substrate of P-gp (P-gp): substrate
glass transition temperature (Tg) [2]: 69 °C
substrate of breast cancer resistance protein (BCRP) [3]: substrate
potency on A2AR (A2AR): less than 10 nM
etrumadenant metabolism mediated by [4]: mediated by CYP3A4, CYP2C8, and uridine 5′-diphospho glucuronosyltransferase (UGT) enzyme isoforms

Reference: US20260115190A1, “DISPERSIONS OF ETRUMADENANT” (Arcus Biosciences, Inc., priority 2022, published 2026)
